In US11932599B2, “Ferroptosis inducing compound, compositions comprising the same, and methods of inducing ferroptosis” (UNIVERSITY OF MASSACHUSETTS, priority 2021, dated 2024):

Assays:
HT-1080 cells [1] = experiment: Cell viability assay (Alamar Blue), cytotoxicity in HT-1080 cells; type: cell-based, human
Procedure: Cell lines and media. In the following example, HT-1080 (Human fibrosarcoma harboring NrasQ61K) cells (obtained from ATCC) were grown in DMEM high-glucose media with 1% non-essential amino acids (Life Technologies) and 10% FBS. 143B cells were grown in DMEM high-glucose media with 1% glutamine and 10% FBS. Calu-1 cells were grown in McCoy's 5A media (Life Technologies) supplemented with 10% FBS. All the cell lines were grown at 37° C. under 5% CO2. Cell lines were not tested for mycoplasma. In addition, the panel of four lung cancer (NCI-H23; SK-Mes-1; Calu6 and A549) were purchased from ATCC. They were cultured according to the ATCC protocol of each cell line. The non-malignant breast epithelial cells (MCF10A) were maintained in DMEM/F12 medium supplemented with 5% horse serum, epidermal growth factor (20 ng/ml), insulin (10 μg/ml), hydrocortisone ([…]), cholera toxin (100 ng/ml), and penicillin/streptomycin.
Cell viability assay. 9,000 cells per 100 μl were seeded in each well in 96-well plates. Lethal compounds were dissolved in DMSO. In the mother plates, DMSO stock of each compound was further diluted with media to create 20 μM or 10 μm as highest concentrations, respectively and a twofold, 9-point dilution series was prepared. Cells were seeded for 24 h and media were replaced by the mother plate drug-dilution media. When ferroptosis inhibitors (for example, 500 nM Ferrostatin-1, 100 μM α-tocopherol, 152 μM deferoxamine) were used in cotreatments with lethal inducers, they were supplemented to cell culture when the lethal compounds were added, and the cells were then incubated for 48 h. When other cell-death-modulating compounds (100 nM sodium selenite) were used in cotreatments, they were supplemented to cell culture for 24 h before lethal compounds were added to cell culture, after which cells were further incubated for 48 h at 37° C. under 5% CO2. On the day of the viability measurement, we added 25 μl per well of 50% Alamar Blue diluted in media (Life Technologies) and further incubated the cells at 37° C. for 6 h. Fluorescence intensity (excitation/emission: 540/590) was measured with a Victor 3 plate reader (PerkinElmer), and the normalized viability was calculated as VL=(IL−I0)/(IV−I0), where VL is the normalized viability, I0 is the raw fluorescence intensities from the wells containing media, IV is the cells treated with a vehicle (negative control), and IL is the cells with the lethal compound (L), respectively. The viability was typically measured in at least biological duplicate. A representative dose-response curve, the mean and standard error of normalized viability from one replicate were plotted.
Statistical analysis and data visualization. Dose-response curve plotting and EC50 computation were performed with Prism 6.0c (GraphPad Software).
Various compounds were selected for analysis of their cytotoxicity in HT-1080 cells according to the procedure described above.

HT-1080 cells [2] = experiment: Cell viability assay in HT-1080 cells, cotreatment with cell-death inhibitors; type: cell-based, human; conditions: HT-1080, 48 h; for EC50: Homo sapiens, read-out: EC50 (μM) of FIN56 + inhbitor
[3] = HT-1080 cells, compound alone, read-out: EC 50
[4] = Homo sapiens, HT-1080, HT-1080 cells, compound alone, read-out: EC 50

O=S(=O)(NC1CCCCC1)c1ccc2c(c1)C(=NO)c1cc(S(=O)(=O)NC3CCCCC3)ccc1-2 [FIN56, reference compound]
EC50 (HT-1080 cells [1]; [3]): 0.326 µM | EC50 (HT-1080 cells [1]; Homo sapiens, HT-1080, 48 h, HT-1080 cells, 48 hour incubation, no inhibitor, read-out: EC50 (μM) of FIN56): 0.328 µM | EC50 (HT-1080 cells [1]; [4]): 0.328 µM | Slectivity in fold [EC50 (FIN56 + inhibitor)/ EC50 inhbitor] (HT-1080 cells [2]; DFOM (152 μM)): >60 fold | Slectivity in fold [EC50 (FIN56 + inhibitor)/ EC50 inhbitor] (HT-1080 cells [2]; Fer 1 (500 nM)): >90 fold | Slectivity in fold [EC50 (FIN56 + inhibitor)/ EC50 inhbitor] (HT-1080 cells [2]; ZVAD 45 μM): 0.6 fold | blocking of the compound's lethality by the apoptosis inhibitor pathway (ZVAD) (HT-1080 cells [2]; ZVAD 45 μM): did not block | Slectivity in fold [EC50 (FIN56 + inhibitor)/ EC50 inhbitor] (HT-1080 cells [2]; aToc (100 μM)): 34.8 fold | EC50 (HT-1080 cells [2]; cotreated with DFOM (152 μM)): > 20 µM | EC50 (HT-1080 cells [2]; cotreated with Fer 1 (500 nM)): > 30 µM | EC50 (HT-1080 cells [2]; cotreated with ZVAD (45 μM)): 0.196 µM | EC50 (HT-1080 cells [2]; cotreated with aToc (100 μM)): 11.5 µM

N#CC1c2cc(S(=O)(=O)NC3CCCCC3)ccc2-c2ccc(S(=O)(=O)NC3CCCCC3)cc21 [MH1013, 9-cyano-N^2,N^7-dicyclohexyl-9H-fluorene-2,7-disulfonamide]
EC50 (HT-1080 cells [1]; [4]): 13.4 µM

C#CCON=C1c2cc(S(=O)(=O)NC3CCCCC3)ccc2-c2ccc(S(=O)(=O)NC3CCCCC3)cc21 [TKD1020, N^2,N^7-dicyclohexyl-9-((prop-2-yn-1-yloxy)imino)-9H-fluorene-2,7-disulfonamide]
EC50 (HT-1080 cells [1]; [4]): 10.8 µM

O=S(=O)(NC12CC(C1)C2)c1ccc2c(c1)C(=NO)c1cc(S(=O)(=O)NC34CC(C3)C4)ccc1-2 [TKD1026, N^2,N^7-di(bicyclo[1.1.1]pentan-1-yl)-9-(hydroxyimino)-9H-fluorene-2,7-disulfonamide]
EC50 (HT-1080 cells [1]; [3]): 1.7 µM | EC50 (HT-1080 cells [1]; [4]): < 2 µM

O=S(=O)(NCCF)c1ccc2c(c1)C(=NO)c1cc(S(=O)(=O)NCCF)ccc1-2 [TKD1027, N^2,N^7-bis(2-fluoroethyl)-9-(hydroxyimino)-9H-fluorene-2,7-disulfonamide]
EC50 (HT-1080 cells [1]; [4]): > 20 µM

CNS(=O)(=O)c1ccc2c(c1)C(=NO)c1cc(S(=O)(=O)NC)ccc1-2 [TKD1034A, 9-(hydroxyimino)-N^2,N^7-dimethyl-9H-fluorene-2,7-disulfonamide]
EC50 (HT-1080 cells [1]; [4]): 12.1 µM
